Entries after “also recorded” stand apart in the source; their conditions may differ.
Assays:
[1] = molecular target: T1, human serotonin 5-HT1a receptor (Homo sapiens, UniProt P08908); experiment: GTPγS assay, recombinant CHO-K1 membranes, agonist testing; type: biochemical; conditions: human recombinant cell line; FIG. 1
T1 construct: expressed in transfected cells; host or cells: CHO-K1
T1 sequence (P08908 1-422): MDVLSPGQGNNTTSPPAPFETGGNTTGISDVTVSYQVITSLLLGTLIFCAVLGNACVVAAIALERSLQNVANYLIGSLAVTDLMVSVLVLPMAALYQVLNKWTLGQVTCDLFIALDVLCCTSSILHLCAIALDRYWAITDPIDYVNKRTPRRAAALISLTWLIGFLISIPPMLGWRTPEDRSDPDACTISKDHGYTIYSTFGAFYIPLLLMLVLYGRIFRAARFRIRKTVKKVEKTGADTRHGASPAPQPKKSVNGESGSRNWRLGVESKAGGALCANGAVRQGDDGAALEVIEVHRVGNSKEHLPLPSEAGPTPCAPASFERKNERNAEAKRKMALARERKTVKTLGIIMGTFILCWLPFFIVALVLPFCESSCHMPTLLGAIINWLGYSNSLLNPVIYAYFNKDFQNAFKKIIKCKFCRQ
Procedure: (§1) Eltoprazine was tested for activity on the human serotonin 5-HT1a and 5-HT1b receptors using a GTPγS assay. Recombinant membranes obtained from CHO-K1 cells expressing either the 5-HT1a or 5-HT1b receptors were mixed with GDP (volume:volume) and incubated for at least 15 min on ice. In parallel, GTPγ[35S] was mixed with the beads (volume:volume) just before starting the reaction. The following reagents were successively added in the wells of an Optiplate (Perkin Elmer): 50 μl of test compound, 20 μl of the membranes:GDP mix, 10 μl of assay buffer (for agonist testing) and 20 μl of the GTPγ[35S]:beads mix. The plates were covered with a top seal, shaken on an orbital shaker for 2 min, and then incubated for 1 h at room temperature. Then the plates were centrifuged for 10 min at 2000 rpm, incubated at room temperature 1 h and counted for 1 min/well with a PerkinElmer TopCount reader.

[2] = molecular target: T2, human serotonin 5-HT1b receptor (Homo sapiens, UniProt P28222); experiment: as above; type: biochemical; conditions: human recombinant cell line; FIG. 1
T2 construct: expressed in transfected cells; host or cells: CHO-K1
T2 sequence (P28222 whole entry): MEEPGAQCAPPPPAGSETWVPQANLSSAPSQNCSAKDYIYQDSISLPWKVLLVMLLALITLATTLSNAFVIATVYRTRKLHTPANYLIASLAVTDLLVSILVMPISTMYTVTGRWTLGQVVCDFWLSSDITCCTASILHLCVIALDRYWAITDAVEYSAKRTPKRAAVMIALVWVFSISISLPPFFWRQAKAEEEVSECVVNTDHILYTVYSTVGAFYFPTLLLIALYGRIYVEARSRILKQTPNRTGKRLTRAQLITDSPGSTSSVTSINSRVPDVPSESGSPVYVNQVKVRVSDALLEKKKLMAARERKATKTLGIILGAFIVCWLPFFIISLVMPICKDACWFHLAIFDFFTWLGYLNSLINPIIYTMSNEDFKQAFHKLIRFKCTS
Procedure: as §1

[3] = molecular target: T3, 5-HT2a recombinant receptor (Homo sapiens, UniProt P28223); experiment: Aequorin cell line functional assay, agonist testing; type: cell-based; conditions: FIG. 1
T3 construct: expressed in transfected cells
T3 sequence (P28223 whole entry): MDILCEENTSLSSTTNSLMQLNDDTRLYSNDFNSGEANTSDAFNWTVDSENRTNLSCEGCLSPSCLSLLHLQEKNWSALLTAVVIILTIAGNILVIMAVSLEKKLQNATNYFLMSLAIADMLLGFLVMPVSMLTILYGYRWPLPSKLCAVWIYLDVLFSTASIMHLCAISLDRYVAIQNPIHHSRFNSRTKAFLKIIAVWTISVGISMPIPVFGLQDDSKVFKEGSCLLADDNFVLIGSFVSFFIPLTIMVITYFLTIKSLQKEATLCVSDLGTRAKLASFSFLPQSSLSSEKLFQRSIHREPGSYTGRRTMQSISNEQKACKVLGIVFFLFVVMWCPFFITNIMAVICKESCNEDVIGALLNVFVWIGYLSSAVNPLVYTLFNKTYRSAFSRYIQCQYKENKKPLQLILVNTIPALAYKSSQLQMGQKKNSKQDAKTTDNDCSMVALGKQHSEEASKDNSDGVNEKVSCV
Procedure: (§2) Aequorin cell lines expressing the 5-HT2a, 5-HT2b and 5-HT2c non-edited (ne) recombinant receptors were used to evaluate the functional activity of eltoprazine. Aequorin cells grown 18 h prior to the test in media without antibiotics were detached by gentle flushing with PBS-EDTA (5 mM EDTA), recovered by centrifugation and resuspended in “assay buffer” (DMEM/HAM's F12 with HEPES+0.1% BSA protease free). Cells were incubated at room temperature for at least 4 h with Coelenterazine h (Molecular Probes). The reference agonist used were 5-HT and α-methyl-5-HT. For agonist testing, 50 μl of cell suspension were injected on 50 μl of test compound or reference agonist plated in a 96-well plate. The resulting emission of light was recorded using the Hamamatsu Functional Drug Screening System 6000 (FDSS 6000).

[4] = molecular target: T4, 5-HT2c non-edited (ne) recombinant receptor (Homo sapiens, UniProt P28335); experiment: as above; type: cell-based; conditions: FIG. 1
T4 construct: expressed in transfected cells
T4 sequence (P28335 33-458): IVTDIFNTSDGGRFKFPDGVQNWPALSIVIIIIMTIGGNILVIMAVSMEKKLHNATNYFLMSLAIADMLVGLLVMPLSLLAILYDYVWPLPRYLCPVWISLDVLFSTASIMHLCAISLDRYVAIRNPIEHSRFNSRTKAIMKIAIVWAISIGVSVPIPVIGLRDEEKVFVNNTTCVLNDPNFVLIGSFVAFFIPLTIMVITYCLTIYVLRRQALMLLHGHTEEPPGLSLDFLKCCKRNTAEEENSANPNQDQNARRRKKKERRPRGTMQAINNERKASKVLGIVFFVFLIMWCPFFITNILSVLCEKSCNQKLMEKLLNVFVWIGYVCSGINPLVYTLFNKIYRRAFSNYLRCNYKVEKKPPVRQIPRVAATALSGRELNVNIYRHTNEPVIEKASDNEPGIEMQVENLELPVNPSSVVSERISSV
Procedure: as §2

[5] = system: 6-OHDA-lesioned rat model of Parkinson's disease; experiment: L-DOPA induced dyskinesia (AIM scores) in unilaterally 6-OHDA-lesioned rats; type: in vivo; conditions: eltoprazine hydrochloride 0.08, 0.3, 1.25 and 5 mg/kg s.c. 30 min before test; after 21 days L-DOPA 6 mg/kg + benserazide 15 mg/kg i.p.; FIG. 2
Procedure: (§3) Male Sprague Dawley rats (Elevage Janvier, Le Genest Saint Isle, France) weighing between 220 and 250 g at the beginning of the study are used in these experiments. They are housed under a 12 h light/dark cycle with free access to standard pelleted food and tap water. Animal treatment and experimental procedures are approved by local ethical committees (Regierungspräsidium Darmstadt; Germany).
(§4) Dopamine-denervating lesions are performed on rats anaesthetized with a 5:1 mixture of ketamine and xylazine (1 ml/kg, i.p.). […] The animals' turning behaviour is recorded in an automated rotometer (TSE Rotameter System, TSE-Systems GmbH, Bad Homburg, Germany) over a 90 min period after the intraperitoneal (i.p.) injection of 2.5 mg/kg dexamphetamine sulphate dissolved in saline. […]
In order to evaluate the severity of LID, AIMs are recorded every second day as described by Cenci et al. (1998). […] Each rat is scored on a severity scale from 0 to 4 based on its frequency and persistence (1=occasional; 2=frequent; 3=continuous but interrupted by sensory distraction; 4=continuous, severe and not interrupted by sensory distraction). […]

[6] = system: 6-OHDA-lesioned rat model of Parkinson's disease; experiment: Turning behaviour induced by high dose of L-DOPA in 6-OHDA-lesioned rats; type: in vivo; conditions: eltoprazine 0.3, 1.25 and 5 mg/kg 30 min before test; 180 min rotometer; FIG. 3
Procedure: as §3, §4
In order to evaluate the effect of eltoprazine on parkinsonian symptoms and its interaction with L-DOPA, rotational behaviour is evaluated. The numbers of ipsilateral and contralateral turns are recorded in an automated rotometer (TSE Rotameter System, TSE-Systems GmbH, Bad Homburg, Germany) over a period of 180 min. […]

Sprague-Dawley rats = experiment: Effect of eltoprazine on weight gain and food intake of rats; type: in vivo, rat; conditions: vs vehicle
Procedure: Experimentally naive adult male Sprague-Dawley rats (250-300 g; Janvier, France) were housed in groups of four per cage. Colony room temperature and humidity were maintained respectively at 20±1° C. and 60±3%. Food and water were available ad libitum and the animals were kept under an alternating 12 h/12 h day-night cycle (lights on at 07.00) for at least 6 days before the experiments were started. All experiments were conducted during the light period of the day-night cycle.
(§5) Eltoprazine hydrochloride was dissolved in sterile water. Animals were treated for 2 weeks using Alzet osmotic pumps (2ML2) implanted under the skin on the back delivering constantly eltoprazine solution or using b.i.d. s.c. Treatment. During the treatment, the rats were kept in single cages.
(§6) Group 1: vehicle (osmotic pump; saline) Group 2: eltoprazine 8 mg/kg/day (osmotic pump; in distilled water) Group 3: vehicle (2 daily injections—9 am & 3 pm—s.c.; in distilled water) Group 4: eltoprazine 1 mg/kg (2 daily injections—9 am & 3 pm—s.c.; in distilled water)
Groups 3 and 4 were NOT injected at the weekend, and the weight and food intake were not recorded at the weekend.
Weight of animals and food intake were measured daily for two weeks (with exception of weekends).

[7] = Plasma levels in the rat weight study; type: in vivo; conditions: N=8
Procedure: as §5, §6

5-HT1a receptor = conditions: Schipper et al. 1990; cited from earlier work
5-HT1b receptor = conditions: Schipper et al. 1990; cited from earlier work
[8] = system: 5-HT2c (initially designated 5-HT1c); conditions: Schipper et al. 1990; cited from earlier work
patients = conditions: clinical trials in aggressive behaviour (de Koning et al. 1994); cited from earlier work

**Q.** With `c1cc2c(c(N3CCNCC3)c1)OCCO2` [eltoprazine, 1-(2,3-dihydro-1,4-benzodioxin-8-yl)piperazine] as the compound, how does the “functional activity at 5-HT1a receptor” value [1] read?
**A.** partial agonistic action

**Q.** What about the “functional activity at 5-HT1b receptor” value [2] of the same compound?
**A.** partial agonistic action

**Q.** And the “functional activity at 5-HT2a receptor” value [3]?
**A.** full agonist

**Q.** What about the “functional activity at 5-HT2c receptor” value [4] of the same compound?
**A.** full agonist

**Q.** And the “effect on AIM scores” value [5]?
**A.** significantly reverses, in a dose-dependent manner

**Q.** What about the “effect on turning behaviour induced by L-DOPA (antiparkinsonian effect of L-DOPA)” value [6] of the same compound?
**A.** does not interfere with the antiparkinsonian effect of L-DOPA

**Q.** What about the weight gain (Sprague-Dawley rats; 1 mg/kg s.c. b.i.d. injections, 2 weeks (not at weekends), FIG. 5A) of the same compound?
**A.** delay in weight gain; also recorded: significant effect of treatment

**Q.** What about the food intake (Sprague-Dawley rats; 1 mg/kg s.c. b.i.d. injections, 2 weeks (not at weekends), FIG. 5B) of the same compound?
**A.** reduced food intake; also recorded: significant effect of treatment

**Q.** What about the weight gain (Sprague-Dawley rats; osmotic minipump 8 mg/kg/day, 2 weeks, FIG. 4A) of the same compound?
**A.** delay in weight gain; also recorded: significant effect of treatment

**Q.** And the food intake (Sprague-Dawley rats; osmotic minipump 8 mg/kg/day, 2 weeks, FIG. 4B)?
**A.** reduced food intake; also recorded: significant effect of treatment

**Q.** And the plasma levels ([7]; 1 mg/kg s.c. b.i.d. injections)?
**A.** approx. 55 ng/ml

**Q.** What about the “plasma levels (range)” value ([7]; 1 mg/kg s.c. b.i.d. injections) of the same compound?
**A.** 48 to 65 ng/mL

**Q.** What about the plasma levels ([7]; osmotic minipump 8 mg/kg/day) of the same compound?
**A.** approx. 110 ng/ml

**Q.** And the “plasma levels (range)” value ([7]; osmotic minipump 8 mg/kg/day)?
**A.** 86 to 143 ng/mL

**Q.** And the “pharmacological action on 5-HT1a receptor” value (5-HT1a receptor)?
**A.** agonistic effect

**Q.** And the “pharmacological action on 5-HT1b receptor” value (5-HT1b receptor)?
**A.** agonistic effect

**Q.** And the “effect on 5-HT2c” value [8]?
**A.** antagonistic

**Q.** What about the clinical safety (patients) of the same compound?
**A.** clinically safe

Source: patent US20120190690A1, “E[…] THE TREATMENT OF WEIGHT DISORDERS” (MERZ PHARMA GmbH & CO. KGaA, priority 2009, published 2012)
